# ChEMBL document CHEMBL1201862, “PubChem BioAssay data set” (2004)
#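 Cells were grown in 96-well plates and exposed to each compound for 48 hours at five concentrations; endpoints were interpolated linearly between bracketing concentrations, or set to the highest concentration if not reached. GI50 = concentration required for 50% inhibition of growth.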 Activity calls are given as the source filed them. No stated cut-off is given here; in the data, active = GI50 up to about 1.1 µM and inactive = higher.
# How the values were obtained:
# Assay in all cases: inhibition of tumour cell growth, NCI panel, 48 h
# 786-0 = system: 786-0
# MCF7 = system: MCF7
# LOX IMVI = system: LOX IMVI
# COLO 205 = system: COLO 205
# NCI-H460 = system: NCI-H460
# UO-31 = system: UO-31
# SN12C = system: SN12C
# EKVX = system: EKVX
# MOLT-4 = system: MOLT-4
# SW-620 = system: SW-620
# T47D = system: T47D
# RXF 393 = system: RXF 393
# IGROV-1 = system: IGROV-1
# DU-145 = system: DU-145
# SK-OV-3 = system: SK-OV-3
# ACHN = system: ACHN
# UACC-257 = system: UACC-257
# HOP-62 = system: HOP-62
# SNB-75 = system: SNB-75
# OVCAR-8 = system: OVCAR-8
Compound,GI50 (786-0),GI50 (MCF7),GI50 (LOX IMVI),GI50 (COLO 205),GI50 (NCI-H460),GI50 (UO-31),GI50 (SN12C),GI50 (EKVX),GI50 (MOLT-4),GI50 (SW-620),GI50 (T47D),GI50 (RXF 393),GI50 (IGROV-1),GI50 (DU-145),GI50 (SK-OV-3),GI50 (ACHN),GI50 (UACC-257),GI50 (HOP-62),GI50 (SNB-75),GI50 (OVCAR-8)
COc1ccc(/C=C/c2ccnc3ccccc23)cc1OC,44.3 µM (inactive),6.82 µM (inactive),10 µM (inactive),12.6 µM (inactive),15.2 µM (inactive),0.186 µM (active),17.9 µM (inactive),14.6 µM (inactive),19.1 µM (inactive),15.7 µM (inactive),11.7 µM (inactive),13.1 µM (inactive),15.5 µM (inactive),13.7 µM (inactive),27.7 µM (inactive),24.2 µM (inactive),21.2 µM (inactive),15.1 µM (inactive),,
Cc1coc2c1CC1OC1(C)CCC1OC1(C)C2 (centres undefined),> 100 µM (inactive),> 100 µM (inactive),> 100 µM (inactive),> 100 µM (inactive),> 100 µM (inactive),> 100 µM (inactive),> 100 µM (inactive),> 100 µM (inactive),> 100 µM (inactive),> 100 µM (inactive),> 100 µM (inactive),,> 100 µM (inactive),> 100 µM (inactive),> 100 µM (inactive),> 100 µM (inactive),> 100 µM (inactive),> 100 µM (inactive),> 100 µM (inactive),> 100 µM (inactive)
CC(=O)Nn1cnc(C(=N)C#N)c1N,> 100 µM (inactive),> 100 µM (inactive),> 100 µM (inactive),> 100 µM (inactive),> 100 µM (inactive),> 100 µM (inactive),> 100 µM (inactive),> 100 µM (inactive),> 100 µM (inactive),> 100 µM (inactive),> 100 µM (inactive),,> 100 µM (inactive),> 100 µM (inactive),> 100 µM (inactive),> 100 µM (inactive),> 100 µM (inactive),> 100 µM (inactive),> 100 µM (inactive),> 100 µM (inactive)
O=S1(=O)c2ccccc2N(c2ccccc2)c2nnnn21,17.1 µM (inactive),36.6 µM (inactive),16.7 µM (inactive),22.5 µM (inactive),31.3 µM (inactive),39.5 µM (inactive),19.1 µM (inactive),33 µM (inactive),19.5 µM (inactive),22.3 µM (inactive),31.8 µM (inactive),19.9 µM (inactive),32.3 µM (inactive),34.5 µM (inactive),42.3 µM (inactive),29.4 µM (inactive),42.3 µM (inactive),21 µM (inactive),,30.1 µM (inactive)
O=C1C(Cl)C(c2cccc(Br)c2)N1c1c(O)c(Cl)cc(Br)c1Cl (centres undefined),23.4 µM (inactive),12.1 µM (inactive),14.5 µM (inactive),8.63 µM (inactive),14.1 µM (inactive),16.8 µM (inactive),14.7 µM (inactive),17 µM (inactive),13 µM (inactive),19.3 µM (inactive),15.2 µM (inactive),10.9 µM (inactive),1.25 µM (inactive),14.9 µM (inactive),18.3 µM (inactive),15.2 µM (inactive),10.8 µM (inactive),13.8 µM (inactive),,30.3 µM (inactive)
